This assay concerns the target BRD4 (Homo sapiens, UniProt O60885). Description: Time resolved fluorescence resonance energy transfer (TR-FRET) binding assay, bromodomain BRD4. The settings on record: one of the FRET assays described; read-out: FRET BRD4 IC50.
`[2H]C([2H])([2H])c1nnn(C)c1-c1cnc2c3ccc(N4CCN(C)CC4)nc3n([C@H](c3ccccc3F)C3CCOCC3)c2c1` [Example 234, 8-[(S)-(2-Fluorophenyl)(oxan-4-yl)methyl]-5-[4-(^2H3)methyl-1-methyl-1H-1,2,3-triazol-5-yl]-11-(4-methylpiperazin-1-yl)-3,8,10-triazatricyclo[7.4.0.0^2,^7]trideca-1(13),2(7),3,5,9,11-hexaene]: the half-inhibitory concentration (IC50) was < 10 nM.

Turning to `Cc1noc(C)c1-c1cnc2c3cnc(Cl)cc3n(C(c3ncccc3F)C3CCOCC3)c2c1` (centres unmarked) [Example 324, 11-Chloro-5-(dimethyl-1,2-oxazol-4-yl)-8-[(3-fluoropyridin-2-yl)(oxan-4-yl)methyl]-3,8,12-triazatricyclo[7.4.0.0^2,^7]trideca-1(9),2(7),3,5,10,12-hexaene], the half-inhibitory concentration (IC50) was < 1500 nM.

Consider `Cc1nnn(C)c1-c1cnc2c3cnc(C(C)(C)O)cc3n([C@H](c3ccccc3)C3CCOCC3)c2c1` [Example 285, 2-[5-(Dimethyl-1H-1,2,3-triazol-5-yl)-8-[(S)-oxan-4-yl(phenyl)methyl]-3,8,12-triazatricyclo[7.4.0.0^2,^7]trideca-1(9),2(7),3,5,10,12-hexaen-11-yl]propan-2-ol], for which the 50% inhibitory concentration (IC50) is < 1 nM.

On to `Cc1nnn(C)c1-c1cnc2c3cc(S(C)(=O)=O)ncc3n([C@H](c3ccccc3F)C3CCOCC3)c2c1` [Example 32, 5-(Dimethyl-1H-1,2,3-triazol-5-yl)-8-[(S)-(2-fluorophenyl)(oxan-4-yl)methyl]-12-methanesulfonyl-3,8,11-triazatricyclo[7.4.0.0^2,^7]trideca-1(13),2(7),3,5,9,11-hexaene], for which the half-inhibitory concentration (IC50) is < 10 nM.

Take `Cc1nnn(C)c1-c1cnc2c3c(NS(=O)(=O)C4CC4)ncc(S(C)(=O)=O)c3n([C@H](c3ccccc3)C3CCOCC3)c2c1` [Example 97, N-[5-(Dimethyl-1H-1,2,3-triazol-5-yl)-10-methanesulfonyl-8-[(S)-oxan-4-yl(phenyl)methyl]-3,8,12-triazatricyclo[7.4.0.0^2,^7]trideca-1(13),2(7),3,5,9,11-hexaen-13-yl]cyclopropanesulfonamide]: the IC50 is < 1 nM.

As for `Cc1nnn(C)c1-c1cnc2c3ccc(N4CCN(S(=O)(=O)N(C)C)CC4)nc3n([C@H](c3ccccc3F)C3CCOCC3)c2c1` [Example 269, 4-[5-(Dimethyl-1H-1,2,3-triazol-5-yl)-8-[(S)-(2-fluorophenyl)(oxan-4-yl)methyl]-3,8,10-triazatricyclo[7.4.0.0^2,^7]trideca-1(13),2(7),3,5,9,11-hexaen-11-yl]-N,N-dimethylpiperazine-1-sulfonamide], the concentration for half-maximal inhibition (IC50) was < 1 nM.

Consider `COc1nnn(C)c1-c1cnc2c3ccc(N4CCS(=O)(=O)CC4)nc3n([C@H](c3ccccc3F)C3CCOCC3)c2c1` [Example 256, 4-{8-[(S)-(2-Fluorophenyl)(oxan-4-yl)methyl]-5-(4-methoxy-1-methyl-1H-1,2,3-triazol-5-yl)-3,8,10-triazatricyclo[7.4.0.0^2,^7]trideca-1(13),2(7),3,5,9,11-hexaen-11-yl}-1λ^6,4-thiomorpholine-1,1-dione], for which the IC50 was < 10 nM.

As for `Cc1nnn(C)c1-c1cnc2c3ccc(N4CCN(C(=O)C5CC5)CC4)nc3n([C@H](c3ccc(F)cc3)C3CCOCC3)c2c1` [Example 258, 11-(4-Cyclopropanecarbonylpiperazin-1-yl)-5-(dimethyl-1H-1,2,3-triazol-5-yl)-8-[(S)-(4-fluorophenyl)(oxan-4-yl)methyl]-3,8,10-triazatricyclo[7.4.0.0^2,^7]trideca-1(13),2(7),3,5,9,11-hexaene], the IC50 is < 10 nM.

`[2H]C([2H])([2H])c1nnn(C)c1-c1cnc2c3ccc(C(C)(O)C4CC4)nc3n([C@H](c3ccccc3F)C3CCOCC3)c2c1` (stereo partly drawn) [Example 243, 1-Cyclopropyl-1-{8-[(S)-(2-fluorophenyl)(oxan-4-yl)methyl]-5-[4-(^2H3)methyl-1-methyl-1H-1,2,3-triazol-5-yl]-3,8,10-triazatricyclo[7.4.0.0^2,^7]trideca-1(13),2(7),3,5,9,11-hexaen-11-yl}ethan-1-ol]: the half-maximal inhibitory concentration (IC50) was < 10 nM.

Turning to `[2H]C([2H])([2H])c1nnn(C)c1-c1cnc2c3ccc(Cl)nc3n(C(c3ncccc3F)C3CCOCC3)c2c1` (centres unmarked) [Example 246, 11-Chloro-8-[(3-fluoropyridin-2-yl)(oxan-4-yl)methyl]-5-[4-(^2H3)methyl-1-methyl-1H-1,2,3-triazol-5-yl]-3,8,10-triazatricyclo[7.4.0.0^2,^7]trideca-1(13),2(7),3,5,9,11-hexaene], the 50% inhibitory concentration (IC50) is < 10 nM.

On to `COc1ncc(S(C)(=O)=O)c2c1c1ncc(-c3c(C)nnn3C)cc1n2C(c1ccccc1)C1CCC(F)(F)CC1` (single isomer, unassigned) [Example 90, 8-[(4,4-Difluorocyclohexyl)(phenyl)methyl]-5-(dimethyl-1H-1,2,3-triazol-5-yl)-10-methanesulfonyl-13-methoxy-3,8,12-triazatricyclo[7.4.0.0^2,^7]trideca-1(13),2(7),3,5,9,11-hexaene], for which the IC50 is < 10 nM.

With `COc1ncc(Br)c2c1c1ncc(-c3c(C)nnn3C)cc1n2[C@H](c1ccccc1)C1CCOCC1` [Example 38, 10-Bromo-5-(dimethyl-1H-1,2,3-triazol-5-yl)-13-methoxy-8-[(S)-oxan-4-yl(phenyl)methyl]-3,8,12-triazatricyclo[7.4.0.0^2,^7]trideca-1(13),2(7),3,5,9,11-hexaene], the half-maximal inhibitory concentration (IC50) is < 10 nM.

For `[2H]C([2H])([2H])c1nnn(C)c1-c1cnc2c3cnc(C(C)(C)O)cc3n(C(CCC)c3ncccc3F)c2c1` (centres unmarked) [Example 360, 2-{8-[1-(3-Fluoropyridin-2-yl)butyl]-5-[4-(^2H3)methyl-1-methyl-1H-1,2,3-triazol-5-yl]-3,8,12-triazatricyclo[7.4.0.0^2,^7]trideca-1(13),2(7),3,5,9,11-hexaen-11-yl}propan-2-ol], the IC50 is < 10 nM.

As for `CC(=O)c1cc2c(cn1)c1ncc(-c3c(C)noc3C)cc1n2[C@H](c1ccc(F)cc1)C1CCOCC1` [Example 330, 1-[5-(Dimethyl-1,2-oxazol-4-yl)-8-[(S)-(4-fluorophenyl)(oxan-4-yl)methyl]-3,8,12-triazatricyclo[7.4.0.0^2,^7]trideca-1(9),2(7),3,5,10,12-hexaen-11-yl]ethan-1-one], the IC50 was < 10 nM.

Turning to `[2H]C([2H])([2H])c1nnn(C)c1-c1cnc2c3c(OC)nc(S(C)(=O)=O)cc3n([C@H](c3ccccc3)C3CCOCC3)c2c1` [Example 342, 11-Methanesulfonyl-13-methoxy-5-[4-(^2H3)methyl-1-methyl-1H-1,2,3-triazol-5-yl]-8-[(S)-oxan-4-yl(phenyl)methyl]-3,8,12-triazatricyclo[7.4.0.0^2,^7]trideca-1(13),2(7),3,5,9,11-hexaene], the IC50 was < 10 nM.

For `Cc1noc(C)c1-c1cnc2c3ccc(S(C)(=O)=O)nc3n([C@H](c3ccccc3F)C3CCOCC3)c2c1` [Example 222, 5-(Dimethyl-1,2-oxazol-4-yl)-8-[(S)-(2-fluorophenyl)(oxan-4-yl)methyl]-11-methanesulfonyl-3,8,10-triazatricyclo[7.4.0.0^2,^7]trideca-1(13),2(7),3,5,9,11-hexaene], the half-inhibitory concentration (IC50) was < 10 nM.

As for `[2H]C([2H])([2H])Oc1ncc(S(C)(=O)=O)c2c1c1ncc(-c3c(C)noc3C([2H])([2H])[2H])cc1n2[C@H](c1ccccc1)C1CCOCC1` [Example 54, 10-Methanesulfonyl-13-(^2H3)methoxy-5-[5-(^2H3)methyl-3-methyl-1,2-oxazol-4-yl]-8-[(S)-oxan-4-yl(phenyl)methyl]-3,8,12-triazatricyclo[7.4.0.0^2,^7]trideca-1(13),2(7),3,5,9,11-hexaene], the half-maximal inhibitory concentration (IC50) is < 10 nM.

Consider `[2H]C([2H])([2H])c1nnn(C)c1-c1cnc2c3c(NCC(F)(F)F)cncc3n(C(c3ncccc3F)C3CCOCC3)c2c1` (centres unmarked) [Example 303, 8-[(3-Fluoropyridin-2-yl)(oxan-4-yl)methyl]-5-[4-(^2H3)methyl-1-methyl-1H-1,2,3-triazol-5-yl]-N-(2,2,2-trifluoroethyl)-3,8,11-triazatricyclo[7.4.0.0^2,^7]trideca-1(9),2(7),3,5,10,12-hexaen-13-amine], for which the concentration for half-maximal inhibition (IC50) was < 10 nM.

As for `[2H]C([2H])([2H])c1onc(C)c1-c1cnc2c3c(OC)ncc(S(=O)(=O)C([2H])([2H])[2H])c3n(C(c3ncccc3F)C3CCOCC3)c2c1` (centres unmarked) [Example 66, 8-[(3-Fluoropyridin-2-yl)(oxan-4-yl)methyl]-10-(^2H3)methanesulfonyl-13-methoxy-5-[5-(^2H3)methyl-3-methyl-1,2-oxazol-4-yl]-3,8,12-triazatricyclo[7.4.0.0^2,^7]trideca-1(13),2(7),3,5,9,11-hexaene], the half-maximal inhibitory concentration (IC50) is < 10 nM.

Regarding `Cc1nnn(C)c1-c1ccc2c3ncc(N4CCS(=O)(=O)CC4)cc3n([C@H](c3ccccc3)C3CCOCC3)c2n1` [Example 381, 4-[11-(Dimethyl-1H-1,2,3-triazol-5-yl)-8-[(S)-oxan-4-yl(phenyl)methyl]-3,8,10-triazatricyclo[7.4.0.0^2,^7]trideca-1(9),2(7),3,5,10,12-hexaen-5-yl]-1λ^6,4-thiomorpholine-1,1-dione], the 50% inhibitory concentration (IC50) was < 10 nM.

Regarding `Cc1nnn(C)c1-c1cnc2c3ccc(NS(C)(=O)=O)nc3n([C@H](c3ccccc3)C3CCOCC3)c2c1` [Example 208, N-[5-(Dimethyl-1H-1,2,3-triazol-5-yl)-8-[(S)-oxan-4-yl(phenyl)methyl]-3,8,10-triazatricyclo[7.4.0.0^2,^7]trideca-1(9),2(7),3,5,10,12-hexaen-11-yl]methanesulfonamide], the concentration for half-maximal inhibition (IC50) is < 10 nM.

For `Cc1noc(C)c1-c1cnc2c3cnc(Cl)cc3n(C(c3ccc(Cl)cn3)C3CCOCC3)c2c1` (single isomer, unassigned) [Example 328], the concentration for half-maximal inhibition (IC50) was < 10 nM.

Regarding `[2H]C([2H])([2H])c1nnn(C)c1-c1cnc2c3c(OC)nc(C(C)=O)cc3n([C@H](c3ncccc3F)C3CCOCC3)c2c1` [Example 308, 1-{8-[(S)-(3-Fluoropyridin-2-yl)(oxan-4-yl)methyl]-13-methoxy-5-[4-(^2H3)methyl-1-methyl-1H-1,2,3-triazol-5-yl]-3,8,12-triazatricyclo[7.4.0.0^2,^7]trideca-1(9),2(7),3,5,10,12-hexaen-11-yl}ethan-1-one], the 50% inhibitory concentration (IC50) was < 10 nM.

Source of the values: patent US9725449B2, “Tricyclic compounds as anticancer agents” (BRISTOL-MYERS SQUIBB COMPANY, priority 2015, dated 2017).
